Measured values as given in PMC4490784, “Compensatory induction of MYC expression by sustained CDK9 inhibition via a BRD4-dependent mechanism” (eLife, 2015).

What was measured:
Test in all cases: KINOMEscan binding assay
[1] = molecular target: T1, PKN1 (Homo sapiens, UniProt Q16512); details: read-out: % Retention on Solid Support
T1 construct: purchased DiscoveRx KINOMEscan
Method in brief: (§1)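 Competitive displacement at the ATP site served as the measure. Over 400 kinases were included, each exposed to i-CDK9 at 1 and at 10 µM.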

[2] = molecular target: T2, SIK2 (Homo sapiens, UniProt Q9H0K1); details: read-out: % Retention on Solid Support
T2 construct: purchased DiscoveRx KINOMEscan
Method in brief: as §1

[3] = molecular target: T3, CSNK1G3 (Homo sapiens, UniProt Q9Y6M4)
T3 construct: purchased DiscoveRx KINOMEscan
Method in brief: as §1

[4] = molecular target: T4, CLK1 (Homo sapiens, UniProt P49759); details: read-out: % Retention on Solid Support
T4 construct: purchased DiscoveRx KINOMEscan
Method in brief: as §1

[5] = molecular target: T5, NEK5 (Homo sapiens, UniProt Q6P3R8); details: read-out: % Retention on Solid Support
T5 construct: purchased DiscoveRx KINOMEscan
Method in brief: as §1

[6] = molecular target: T6, TAOK2 (Homo sapiens, UniProt Q9UL54); details: read-out: % Retention on Solid Support
T6 construct: purchased DiscoveRx KINOMEscan
Method in brief: as §1

[7] = molecular target: T7, TGFBR2 (Homo sapiens, UniProt P37173); details: read-out: % Retention on Solid Support
T7 construct: purchased DiscoveRx KINOMEscan
Method in brief: as §1

[8] = molecular target: T8, PRKCH (Homo sapiens, UniProt P24723); details: read-out: % Retention on Solid Support
T8 construct: purchased DiscoveRx KINOMEscan
Method in brief: as §1

[9] = molecular target: T9, RIPK4 (Homo sapiens, UniProt P57078); details: read-out: % Retention on Solid Support
T9 construct: purchased DiscoveRx KINOMEscan
Method in brief: as §1

[10] = molecular target: T10, PIK3C2G (Homo sapiens, UniProt O75747); details: read-out: % Retention on Solid Support
T10 construct: purchased DiscoveRx KINOMEscan
Method in brief: as §1

[11] = molecular target: S6K1 (Homo sapiens, UniProt P23443); details: 1 µM i-CDK9; read-out: % Retention on Solid Support
Method in brief: as §1

[12] = molecular target: T11, BIKE (Homo sapiens, UniProt Q9NSY1); details: read-out: % Retention on Solid Support
T11 construct: purchased DiscoveRx KINOMEscan
Method in brief: as §1

[13] = molecular target: T12, ASK1 (Homo sapiens, UniProt Q99683); details: read-out: % Retention on Solid Support
T12 construct: purchased DiscoveRx KINOMEscan
Method in brief: as §1

[14] = molecular target: T13, MRCKA (Homo sapiens, UniProt Q5VT25); details: read-out: % Retention on Solid Support
T13 construct: purchased DiscoveRx KINOMEscan
Method in brief: as §1

[15] = molecular target: T14, EGFR (Homo sapiens, UniProt P00533)
T14 construct: purchased DiscoveRx KINOMEscan
Method in brief: as §1

[16] = molecular target: T15, PIK3CB (Homo sapiens, UniProt P42338); details: read-out: % Retention on Solid Support
T15 construct: purchased DiscoveRx KINOMEscan
Method in brief: as §1

[17] = molecular target: T16, CIT (Homo sapiens, UniProt O14578)
T16 construct: purchased DiscoveRx KINOMEscan
Method in brief: as §1

[18] = molecular target: T17, NEK2 (Homo sapiens, UniProt P51955); details: read-out: % Retention on Solid Support
T17 construct: purchased DiscoveRx KINOMEscan
Method in brief: as §1

[19] = molecular target: T18, PIK3CD (Homo sapiens, UniProt O00329); details: read-out: % Retention on Solid Support
T18 construct: purchased DiscoveRx KINOMEscan
Method in brief: as §1

[20] = molecular target: T19, RET (Homo sapiens, UniProt P07949); details: read-out: % Retention on Solid Support
T19 construct: purchased DiscoveRx KINOMEscan
Method in brief: as §1

[21] = molecular target: T20, ABL1(Y253F)-non phosphorylated (Homo sapiens, UniProt P00519, Y253F); details: read-out: % Retention on Solid Support
T20 construct: purchased DiscoveRx KINOMEscan
Method in brief: as §1

[22] = molecular target: T21, BLK (Homo sapiens, UniProt P51451); details: read-out: % Retention on Solid Support
T21 construct: purchased DiscoveRx KINOMEscan
Method in brief: as §1

[23] = molecular target: T22, EGFR(G719C) (Homo sapiens, UniProt P00533, G719C)
T22 construct: purchased DiscoveRx KINOMEscan
Method in brief: as §1

[24] = molecular target: T23, WEE2 (Homo sapiens, UniProt P0C1S8); details: read-out: % Retention on Solid Support
T23 construct: purchased DiscoveRx KINOMEscan
Method in brief: as §1

[25] = molecular target: T24, KIT(V559D,T670I) (Homo sapiens, UniProt P10721, T670I/V559D); details: read-out: % Retention on Solid Support
T24 construct: purchased DiscoveRx KINOMEscan
Method in brief: as §1

[26] = molecular target: T25, MKNK1 (Homo sapiens, UniProt Q9BUB5); details: read-out: % Retention on Solid Support
T25 construct: purchased DiscoveRx KINOMEscan
Method in brief: as §1

[27] = molecular target: T26, PIK3CA(E542K) (Homo sapiens, UniProt P42336, E542K); details: read-out: % Retention on Solid Support
T26 construct: purchased DiscoveRx KINOMEscan
Method in brief: as §1

[28] = molecular target: T27, CSNK1E (Homo sapiens, UniProt P49674); details: read-out: % Retention on Solid Support
T27 construct: purchased DiscoveRx KINOMEscan
Method in brief: as §1

T7 sequence (P37173 23-567): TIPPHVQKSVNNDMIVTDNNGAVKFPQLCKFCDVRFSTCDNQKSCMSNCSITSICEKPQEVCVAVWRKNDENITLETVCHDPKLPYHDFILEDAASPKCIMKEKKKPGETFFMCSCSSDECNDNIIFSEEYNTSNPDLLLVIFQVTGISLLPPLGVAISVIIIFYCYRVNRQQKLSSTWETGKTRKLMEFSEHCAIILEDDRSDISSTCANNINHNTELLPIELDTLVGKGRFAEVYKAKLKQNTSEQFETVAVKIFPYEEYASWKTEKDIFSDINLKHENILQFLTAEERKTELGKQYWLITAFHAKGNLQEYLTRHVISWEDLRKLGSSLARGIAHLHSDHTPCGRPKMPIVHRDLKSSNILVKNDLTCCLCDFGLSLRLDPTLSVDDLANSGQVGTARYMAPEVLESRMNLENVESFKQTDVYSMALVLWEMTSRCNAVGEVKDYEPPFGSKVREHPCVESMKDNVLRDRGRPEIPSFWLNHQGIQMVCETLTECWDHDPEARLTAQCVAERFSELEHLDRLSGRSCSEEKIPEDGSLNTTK
T18 sequence (O00329 whole entry): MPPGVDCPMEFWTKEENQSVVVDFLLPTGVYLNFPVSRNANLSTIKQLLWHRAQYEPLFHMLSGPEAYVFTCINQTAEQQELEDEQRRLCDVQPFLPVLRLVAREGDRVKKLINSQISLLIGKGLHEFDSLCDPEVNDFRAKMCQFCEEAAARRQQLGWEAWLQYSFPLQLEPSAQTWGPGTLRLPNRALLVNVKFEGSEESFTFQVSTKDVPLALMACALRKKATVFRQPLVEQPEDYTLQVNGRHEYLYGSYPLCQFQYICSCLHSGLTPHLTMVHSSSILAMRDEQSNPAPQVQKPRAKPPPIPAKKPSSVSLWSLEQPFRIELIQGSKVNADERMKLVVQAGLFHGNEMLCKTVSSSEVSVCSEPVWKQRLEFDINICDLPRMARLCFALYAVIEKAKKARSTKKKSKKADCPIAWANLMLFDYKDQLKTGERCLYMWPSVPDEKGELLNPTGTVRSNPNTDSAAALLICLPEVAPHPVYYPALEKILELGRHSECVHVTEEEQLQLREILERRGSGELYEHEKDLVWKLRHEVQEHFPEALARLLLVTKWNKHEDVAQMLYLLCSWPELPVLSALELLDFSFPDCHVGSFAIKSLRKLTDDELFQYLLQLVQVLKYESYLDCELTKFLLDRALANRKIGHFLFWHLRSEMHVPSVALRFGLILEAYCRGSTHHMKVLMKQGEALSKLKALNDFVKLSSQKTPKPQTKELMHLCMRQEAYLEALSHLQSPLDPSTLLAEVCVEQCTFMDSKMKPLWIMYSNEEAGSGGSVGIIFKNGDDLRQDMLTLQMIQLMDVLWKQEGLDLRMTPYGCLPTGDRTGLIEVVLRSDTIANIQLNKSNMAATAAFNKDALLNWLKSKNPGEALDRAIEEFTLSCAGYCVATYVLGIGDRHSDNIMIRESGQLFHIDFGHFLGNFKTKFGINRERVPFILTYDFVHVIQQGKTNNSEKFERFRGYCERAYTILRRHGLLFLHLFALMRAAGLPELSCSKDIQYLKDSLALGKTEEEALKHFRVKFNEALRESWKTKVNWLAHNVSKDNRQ
T16 sequence (O14578 whole entry): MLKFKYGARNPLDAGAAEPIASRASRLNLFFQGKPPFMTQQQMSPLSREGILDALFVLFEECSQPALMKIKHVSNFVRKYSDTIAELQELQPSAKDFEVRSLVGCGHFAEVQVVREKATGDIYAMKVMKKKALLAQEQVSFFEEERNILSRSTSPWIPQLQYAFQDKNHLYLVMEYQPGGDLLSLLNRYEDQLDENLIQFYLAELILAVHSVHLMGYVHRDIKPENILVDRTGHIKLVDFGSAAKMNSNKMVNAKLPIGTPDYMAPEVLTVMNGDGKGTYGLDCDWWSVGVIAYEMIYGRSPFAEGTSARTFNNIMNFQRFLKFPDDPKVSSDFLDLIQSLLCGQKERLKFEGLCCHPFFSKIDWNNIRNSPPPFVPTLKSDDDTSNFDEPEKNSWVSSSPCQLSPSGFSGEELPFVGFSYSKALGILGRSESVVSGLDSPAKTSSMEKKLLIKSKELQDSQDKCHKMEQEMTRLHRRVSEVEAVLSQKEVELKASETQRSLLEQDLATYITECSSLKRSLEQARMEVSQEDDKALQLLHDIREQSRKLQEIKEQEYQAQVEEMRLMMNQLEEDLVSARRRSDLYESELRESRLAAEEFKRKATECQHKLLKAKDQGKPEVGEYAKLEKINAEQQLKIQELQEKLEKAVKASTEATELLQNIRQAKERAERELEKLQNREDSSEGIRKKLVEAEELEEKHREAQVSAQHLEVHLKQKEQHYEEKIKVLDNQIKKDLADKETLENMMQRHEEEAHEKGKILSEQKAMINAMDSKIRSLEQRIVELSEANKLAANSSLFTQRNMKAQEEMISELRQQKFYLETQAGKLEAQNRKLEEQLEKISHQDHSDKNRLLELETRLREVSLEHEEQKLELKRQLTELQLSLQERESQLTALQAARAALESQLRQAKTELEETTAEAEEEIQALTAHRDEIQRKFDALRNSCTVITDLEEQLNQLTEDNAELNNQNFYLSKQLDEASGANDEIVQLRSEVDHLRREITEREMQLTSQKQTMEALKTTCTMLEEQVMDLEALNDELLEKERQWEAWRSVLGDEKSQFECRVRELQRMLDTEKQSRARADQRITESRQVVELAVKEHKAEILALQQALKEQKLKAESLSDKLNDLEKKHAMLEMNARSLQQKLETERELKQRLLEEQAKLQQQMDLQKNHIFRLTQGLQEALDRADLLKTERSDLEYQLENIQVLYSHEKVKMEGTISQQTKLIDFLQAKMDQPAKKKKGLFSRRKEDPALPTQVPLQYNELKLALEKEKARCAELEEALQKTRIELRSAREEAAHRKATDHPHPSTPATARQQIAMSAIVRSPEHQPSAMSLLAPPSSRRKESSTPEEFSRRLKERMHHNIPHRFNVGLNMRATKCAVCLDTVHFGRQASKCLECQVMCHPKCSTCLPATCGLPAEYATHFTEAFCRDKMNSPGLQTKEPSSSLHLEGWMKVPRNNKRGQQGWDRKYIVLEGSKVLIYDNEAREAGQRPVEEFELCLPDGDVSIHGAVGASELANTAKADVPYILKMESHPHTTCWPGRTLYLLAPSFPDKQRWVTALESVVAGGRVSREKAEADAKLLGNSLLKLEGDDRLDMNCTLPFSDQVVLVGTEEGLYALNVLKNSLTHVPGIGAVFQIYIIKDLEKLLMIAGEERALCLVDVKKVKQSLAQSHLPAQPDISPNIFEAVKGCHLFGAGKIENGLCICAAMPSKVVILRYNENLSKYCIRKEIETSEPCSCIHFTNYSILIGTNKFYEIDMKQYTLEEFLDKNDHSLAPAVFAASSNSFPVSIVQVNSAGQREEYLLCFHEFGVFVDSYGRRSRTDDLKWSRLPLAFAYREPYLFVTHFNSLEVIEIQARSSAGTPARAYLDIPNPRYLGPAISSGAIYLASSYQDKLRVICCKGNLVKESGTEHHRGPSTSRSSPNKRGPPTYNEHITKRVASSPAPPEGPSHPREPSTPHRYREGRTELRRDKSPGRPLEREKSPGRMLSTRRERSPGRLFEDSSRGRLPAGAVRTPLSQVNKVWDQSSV
T19 sequence (P07949 29-1114): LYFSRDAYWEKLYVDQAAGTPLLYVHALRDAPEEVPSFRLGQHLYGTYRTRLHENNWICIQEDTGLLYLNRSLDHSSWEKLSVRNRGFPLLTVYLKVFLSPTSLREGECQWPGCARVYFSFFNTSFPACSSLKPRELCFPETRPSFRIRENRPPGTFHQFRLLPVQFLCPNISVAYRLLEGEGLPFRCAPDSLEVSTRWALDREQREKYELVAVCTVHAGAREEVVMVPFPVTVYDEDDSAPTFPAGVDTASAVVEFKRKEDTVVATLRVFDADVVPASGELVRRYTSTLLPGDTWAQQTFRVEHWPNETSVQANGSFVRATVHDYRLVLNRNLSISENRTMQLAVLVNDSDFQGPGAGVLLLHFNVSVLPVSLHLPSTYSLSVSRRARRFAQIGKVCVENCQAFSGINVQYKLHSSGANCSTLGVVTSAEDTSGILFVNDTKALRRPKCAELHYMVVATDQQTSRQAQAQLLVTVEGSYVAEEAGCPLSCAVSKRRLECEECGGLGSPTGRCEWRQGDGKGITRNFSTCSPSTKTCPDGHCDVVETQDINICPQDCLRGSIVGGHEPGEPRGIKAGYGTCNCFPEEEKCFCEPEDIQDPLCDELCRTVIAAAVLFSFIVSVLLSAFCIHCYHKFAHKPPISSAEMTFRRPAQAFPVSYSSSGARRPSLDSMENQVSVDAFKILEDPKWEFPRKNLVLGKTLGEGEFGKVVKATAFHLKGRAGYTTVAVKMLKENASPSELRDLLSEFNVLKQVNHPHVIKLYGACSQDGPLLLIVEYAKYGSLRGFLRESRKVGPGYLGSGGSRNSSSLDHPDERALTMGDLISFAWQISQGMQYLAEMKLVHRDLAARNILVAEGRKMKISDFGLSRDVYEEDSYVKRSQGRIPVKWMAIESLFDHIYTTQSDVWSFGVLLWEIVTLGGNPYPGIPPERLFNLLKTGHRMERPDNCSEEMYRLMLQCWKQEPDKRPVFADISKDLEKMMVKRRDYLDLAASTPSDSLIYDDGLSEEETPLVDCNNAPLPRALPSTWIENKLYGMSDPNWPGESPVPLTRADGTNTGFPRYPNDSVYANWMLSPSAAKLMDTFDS
T27 sequence (P49674 whole entry): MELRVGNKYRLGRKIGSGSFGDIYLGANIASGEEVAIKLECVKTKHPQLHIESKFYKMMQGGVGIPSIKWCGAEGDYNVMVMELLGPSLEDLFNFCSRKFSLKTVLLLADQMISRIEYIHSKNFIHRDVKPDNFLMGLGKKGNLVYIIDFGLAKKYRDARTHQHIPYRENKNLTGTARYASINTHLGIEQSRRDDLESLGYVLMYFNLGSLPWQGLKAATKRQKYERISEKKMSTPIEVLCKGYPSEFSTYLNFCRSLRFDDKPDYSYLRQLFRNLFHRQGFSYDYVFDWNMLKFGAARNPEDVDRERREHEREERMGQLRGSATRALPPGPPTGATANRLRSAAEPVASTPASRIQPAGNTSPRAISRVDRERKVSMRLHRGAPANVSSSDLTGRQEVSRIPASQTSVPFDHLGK

N[C@H]1CC[C@H](Nc2cc(-c3cccc(NCc4cccc(F)c4)n3)c(Cl)cn2)CC1 [i-CDK9, N2′-(trans-4-aminocyclohexyl)-5′-chloro-N6-(3-fluorobenzyl)-2,4′-bipyridine-2′,6-diamine]
remaining binding at 1 µM ([1]; 1 µM i-CDK9): 73%
remaining binding at 10 µM ([1]; 10 µM i-CDK9): 100%
remaining binding at 1 µM ([2]; 1 µM i-CDK9): 90%
remaining binding at 10 µM ([2]; 10 µM i-CDK9): 64%
% Retention on Solid Support ([3]; 1 µM i-CDK9): 91%
% Retention on Solid Support ([3]; 10 µM i-CDK9): 63%
remaining binding at 1 µM ([4]; 1 µM i-CDK9): 14%
remaining binding at 10 µM ([4]; 10 µM i-CDK9): 0.55%
remaining binding at 1 µM ([5]; 1 µM i-CDK9): 88%
remaining binding at 10 µM ([5]; 10 µM i-CDK9): 100%
remaining binding at 1 µM ([6]; 1 µM i-CDK9): 82%
remaining binding at 10 µM ([6]; 10 µM i-CDK9): 5.8%
remaining binding at 1 µM ([7]; 1 µM i-CDK9): 87%
remaining binding at 10 µM ([7]; 10 µM i-CDK9): 100%
remaining binding at 1 µM ([8]; 1 µM i-CDK9): 83%
remaining binding at 10 µM ([8]; 10 µM i-CDK9): 80%
remaining binding at 1 µM ([9]; 1 µM i-CDK9): 53%
remaining binding at 10 µM ([9]; 10 µM i-CDK9): 100%
remaining binding at 1 µM ([10]; 1 µM i-CDK9): 100%
remaining binding at 10 µM ([10]; 10 µM i-CDK9): 99%
remaining binding at 1 µM [11]: 100%
remaining binding at 1 µM ([12]; 1 µM i-CDK9): 100%
remaining binding at 10 µM ([12]; 10 µM i-CDK9): 63%
remaining binding at 1 µM ([13]; 1 µM i-CDK9): 100%
remaining binding at 10 µM ([13]; 10 µM i-CDK9): 100%
remaining binding at 1 µM ([14]; 1 µM i-CDK9): 100%
remaining binding at 10 µM ([14]; 10 µM i-CDK9): 100%
% Retention on Solid Support ([15]; 1 µM i-CDK9): 4.7%
% Retention on Solid Support ([15]; 10 µM i-CDK9): 100%
remaining binding at 1 µM ([16]; 1 µM i-CDK9): 68%
remaining binding at 10 µM ([16]; 10 µM i-CDK9): 84%
% Retention on Solid Support ([17]; 1 µM i-CDK9): 60%
% Retention on Solid Support ([17]; 10 µM i-CDK9): 8.2%
remaining binding at 1 µM ([18]; 1 µM i-CDK9): 77%
remaining binding at 10 µM ([18]; 10 µM i-CDK9): 100%
remaining binding at 1 µM ([19]; 1 µM i-CDK9): 100%
remaining binding at 10 µM ([19]; 10 µM i-CDK9): 100%
remaining binding at 1 µM ([20]; 1 µM i-CDK9): 100%
remaining binding at 10 µM ([20]; 10 µM i-CDK9): 100%
remaining binding at 1 µM ([21]; 1 µM i-CDK9): 84%
remaining binding at 10 µM ([21]; 10 µM i-CDK9): 100%
remaining binding at 1 µM ([22]; 1 µM i-CDK9): 100%
remaining binding at 10 µM ([22]; 10 µM i-CDK9): 100%
% Retention on Solid Support ([23]; 1 µM i-CDK9): 86%
% Retention on Solid Support ([23]; 10 µM i-CDK9): 46%
remaining binding at 1 µM ([24]; 1 µM i-CDK9): 100%
remaining binding at 10 µM ([24]; 10 µM i-CDK9): 100%
remaining binding at 1 µM ([25]; 1 µM i-CDK9): 95%
remaining binding at 10 µM ([25]; 10 µM i-CDK9): 100%
remaining binding at 1 µM ([26]; 1 µM i-CDK9): 100%
remaining binding at 10 µM ([26]; 10 µM i-CDK9): 100%
remaining binding at 1 µM ([27]; 1 µM i-CDK9): 100%
remaining binding at 10 µM ([27]; 10 µM i-CDK9): 100%
remaining binding at 1 µM ([28]; 1 µM i-CDK9): 100%
remaining binding at 10 µM ([28]; 10 µM i-CDK9): 45%
